The values below are quoted from earlier work in patent US10984362B2, “Methods for post-harvest crop pest management” (priority 2017, dated 2021).

The subject of data set [1] is tobacco moth and susceptible cigarette beetle. The note with it: 100% control of all development stages.
For data set [2], the system named is resistant cigarette beetle. Conditions: 100% control of all development stages.
Setting [3] is: tobacco temperature 16-20 °C (61-68 °F), 300 ppm phosphine at the bale/case centre.

Like-named read-outs stand apart in the source and are kept apart here.

As for `P` [Phosphine, phosphine], the “Minimum Exposure Time” value is listed as 6 days in data set [1] (setting [3]); 4 days in data set [1] (tobacco temperature >20 °C (>68 °F), 200 ppm phosphine at the bale/case centre); 12 days in data set [2] (setting [3]); 12 days in data set [2] (tobacco temperature 20-25 °C (68-77 °F), 300 ppm phosphine at the bale/case centre); 10 days in data set [2] (tobacco temperature 20-25 °C (68-77 °F), 700 ppm phosphine at the bale/case centre); 12 days in data set [2] (tobacco temperature >25 °C (>77 °F), 300 ppm phosphine at the bale/case centre). In addition, the “Minimum Exposure Time” value in data set [2] (tobacco temperature >25 °C (>77 °F), 600 ppm phosphine at the bale/case centre) is recorded as 6 days.
